The record followed here is PubChem BioAssay (NCI).

Molecules are shown by their SMILES.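 In this assay, cells in 96-well plates receive the compound at five concentrations for 48 hours. Endpoints are linearly interpolated between the surrounding concentrations. GI50: concentration for 50% inhibition of growth. The concentration for full growth arrest is given as TGI.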

Common to all, as to assay: growth of human tumour cells (NCI), 48 h
Assay [1] has as its system IGROV1 ovarian.
For assay [2], the system named is NCI-H226 lung.
Assay [3] has as its system MDA-MB-435.
Assay [4] has as its system HCT-15 colon.
The subject of assay [5] is OVCAR-8 ovarian.
Assay [6] has as its system UO-31 renal.
The test system of assay [7] is LOX IMVI melanoma.
Assay [8] relates to SW-620 colon.
The subject of assay [9] is MDA-MB-231 breast.
Assay [10] concerns KM12 colon.

As to `CCOC(=O)C1=C(C)NC2SC(=O)/C(=C\c3ccccc3)N2C1c1ccccc1` (stereo not drawn), the GI50 in [1], in [2], in assay [3], in assay [4], in assay [5] and in assay [6] was greater than 100 µM throughout. Moreover, the GI50 in [7] is greater than 100 µM; in [8], greater than 100 µM; in [9], greater than 100 µM; in [10], 73.7 µM. Also, the TGI in assay [1], in [2], in assay [3], in [4], in [5] and in assay [6] was greater than 100 µM each time. Further, the TGI in assay [7], in assay [8], in assay [9] and in assay [10] was greater than 100 µM throughout.

Turning to `O=S1(=O)CS(=O)(=O)OCCCO1`, the TGI in assay [1], in assay [2], in assay [3], in assay [4], in assay [5] and in assay [6] was greater than 100 µM throughout. Also, the TGI in assay [7], in [8], in [9] and in assay [10] was greater than 100 µM in each case.

Turning to `COc1ccc2c(=O)c3cc([N+](=O)[O-])ccc3n(C)c2c1`, the TGI in [1], in assay [2], in assay [3], in assay [4], in assay [5] and in [6] was greater than 100 µM throughout. Moreover, the TGI in assay [7], in [8], in assay [9] and in assay [10] was greater than 100 µM each time.

As to `Cc1nc(/N=C(\N)NC(=O)Nc2ccccc2Cl)sc1C`, the GI50 was 0.528 µM in [1]; 1.15 µM in assay [2]; 0.0868 µM in [3]; 0.25 µM in assay [4]; 0.592 µM in assay [5]; 0.857 µM in assay [6]. In addition, the GI50 in assay [7] is 0.533 µM; in assay [8], 0.329 µM; in assay [9], 1.06 µM; in assay [10], 0.405 µM. Further, the TGI in [1] was greater than 100 µM; in assay [2], 14.9 µM; in assay [3], 0.466 µM; in assay [4] it was greater than 100 µM; in [5], greater than 40.2 µM; in assay [6], 6.49 µM. The TGI was greater than 100 µM in [7], greater than 100 µM in assay [8], 50.3 µM in [9] and greater than 100 µM in [10].

`C/C(=C\CCc1ccoc1)CC/C=C(\C)CCCN1CCC(CO)CC1`: the GI50 was 5.33 µM in [1]; 6.16 µM in [2]; 3.07 µM in assay [3]; 3.07 µM in assay [4]; 5.19 µM in [5]; 3.85 µM in assay [6]. The GI50 in assay [7] is 1.81 µM; in assay [8], 2.06 µM; in assay [9] it was 1.73 µM; in assay [10] it was 2.45 µM. Further, the TGI in [1] stood at 19 µM; in [2] it was 22.3 µM; in assay [3], 10.8 µM; in [4], 12 µM; in [5] it was 19 µM; in assay [6], 16.7 µM. For the same molecule, the TGI in assay [7] was 3.47 µM; in assay [8], 5.08 µM; in assay [9], 4.39 µM; in assay [10], 5.41 µM.

In the case of `C=C1C(=O)O[C@@H]2C[C@@H]1CC[C@@]1(C)O[C@@H]1CC[C@@]1(C)O[C@@H]1CC[C@@]2(C)O`, the GI50 in [1] was 21.2 µM; in [2] it was 16.9 µM; in assay [3], 17.4 µM; in assay [4], 24 µM; in assay [5] it was 29 µM; in [6], 15.3 µM. Moreover, the GI50 in assay [7] was 15.7 µM; in assay [8] it was 14.1 µM; in assay [9] it was 13.7 µM; in [10], 26.2 µM. In addition, the TGI in [1] was greater than 100 µM; in assay [2], 35.9 µM; in [3] it was 68.4 µM; in assay [4], 70.1 µM; in [5], greater than 100 µM; in assay [6] it was greater than 100 µM. For the same molecule, the TGI in assay [7] was 31 µM; in assay [8], 42.2 µM; in assay [9], 31.6 µM; in assay [10] it was greater than 100 µM.

Take `CC1(C)CC2C=C(C=O)C3(C=O)CC3(C)C2C1` (stereo not drawn): the TGI in assay [1] amounted to 4.68 µM; in [2] it was 9.18 µM; in [3], 3.46 µM; in assay [4], 3.94 µM; in assay [5] it was 6.1 µM; in assay [6], 3.29 µM. The TGI amounted to 2.81 µM in [7], 2.4 µM in [8], 3.87 µM in [9] and 13.5 µM in assay [10].

Turning to `N#Cc1c(-c2ccccc2)cc(-c2ccccc2)n(CCCCC(=O)NO)c1=O`, the GI50 in assay [1] is 2.48 µM; in assay [2] it was 3.98 µM; in assay [3], 2.4 µM; in assay [4] it was 0.57 µM; in assay [5] it was 2.16 µM; in assay [6] it was 1.22 µM. In addition, the GI50 in assay [7] was 1.71 µM; in assay [8] it was 2.95 µM; in assay [9], 3.27 µM; in [10], 2.8 µM. For the same molecule, the TGI in assay [1] came out at 9.34 µM; in assay [2] it was 19 µM; in assay [3], 11.5 µM; in [4] it was 13.6 µM; in [5], 14 µM; in assay [6], 3.47 µM. Further, the TGI in assay [7] was determined as 3.22 µM; in [8], 11.9 µM; in [9] it was 10.1 µM; in [10], 13.6 µM.

As to `COc1c(CNC(=O)CCl)cc2[nH]c(C)cc2c1CNC(=O)CCl`, the GI50 was 3.49 µM in assay [1]; 9.2 µM in [2]; 5.2 µM in assay [3]; 14.9 µM in assay [4]; 4.73 µM in assay [5]; 15.7 µM in assay [6]. Further, the GI50 in assay [7] is 3.17 µM; in [8], 5.61 µM; in assay [9], 6.12 µM; in assay [10] it was 6.08 µM. Moreover, the TGI in [1] is greater than 100 µM; in assay [2], 73.7 µM; in assay [3], 36.4 µM; in assay [4], greater than 100 µM; in assay [5], 60.4 µM; in assay [6], 56.7 µM. The TGI in assay [7] was 31.8 µM; in assay [8], 20.7 µM; in [9], 41.3 µM; in assay [10] it was 19.4 µM.

As to `CC(=O)OCC1OC(OC2=C(CC=C(Cl)Cl)C(=O)c3ccccc3C2=O)C(OC(C)=O)C(OC(C)=O)C1OC(C)=O` (stereo not drawn), the GI50 in assay [1] is 0.869 µM; in assay [2] it was 15.6 µM; in assay [3] it was 4.38 µM; in [4] it was 3.64 µM; in assay [5], 2.96 µM; in assay [6] it was 1.44 µM. For the same molecule, the GI50 is 1.71 µM in [7], 1.74 µM in assay [8], 2.05 µM in assay [9] and 3.26 µM in assay [10]. The TGI was found to be 3.11 µM in [1]; 50.5 µM in [2]; 16 µM in [3]; 21.3 µM in [4]; 8.29 µM in assay [5]; 3.37 µM in assay [6]. The TGI in [7] came to 3.56 µM; in assay [8], 3.88 µM; in [9], 5.62 µM; in assay [10], 10.1 µM.

Turning to `COC(=O)[C@H](CC(C)C)NC(=O)NC(=O)NC(=O)CI`, the GI50 in assay [1] was 2.06 µM; in [2] it was 2.95 µM; in assay [3], 6.1 µM; in assay [4] it was 1.66 µM; in [5], 5.69 µM; in assay [6] it was 1.64 µM. For the same molecule, the GI50 in [7] was 1.64 µM; in assay [8], 1.83 µM; in [9] it was 10.2 µM; in [10] it was 15.8 µM. The TGI in assay [1] is 4.64 µM; in assay [2] it was 10 µM; in [3] it was 19.2 µM; in assay [4], 3.13 µM; in [5], 18.4 µM; in assay [6], 3.13 µM. The TGI in assay [7] was 3.24 µM; in assay [8], 3.53 µM; in assay [9], 25.8 µM; in assay [10] it was 32.8 µM.

With `COc1cc([C@@H]2c3cc4c(cc3[C@@H](O[C@@H]3O[C@@H]5CO[C@@H](c6cccs6)O[C@H]5[C@H](O)[C@H]3O)[C@H]3COC(=O)[C@H]23)OCO4)cc(OC)c1O`, the TGI was 36.7 µM in assay [1]; 0.742 µM in assay [2]; greater than 39.2 µM in [3]; greater than 55.9 µM in assay [4]; 2.51 µM in assay [5]; 14.7 µM in [6]. The TGI is 2.26 µM in assay [7], greater than 46.1 µM in assay [8], 7.43 µM in [9] and 4.34 µM in assay [10]. Also, the GI50 was 0.152 µM in assay [2]; 1.15 µM in assay [3]; 0.34 µM in assay [5]; 1.78 µM in assay [6]; 0.0969 µM in assay [7]; 0.175 µM in assay [8]. Further, the GI50 in assay [9] was 1.56 µM; in assay [10] it was 0.634 µM.
